In publication PMC11071649, “Synthesis and Selective Anticancer Activity Evaluation of 2-phenylacrylonitrile Derivatives as Tubulin Inhibitors” (Current Medicinal Chemistry, 2024):

Assays:
Type in all cases: cell-based, human
[1] = tested on: A549 lung cancer cell; assay: MTT anti-proliferative assay, A549; settings: for IC50: MTT, 48 h
Method: (§1) The anti-proliferation activities of the synthesized analogs were assessed by an in vitro MTT assay conducted on thirteen human cell lines. Their cytotoxic activities were evaluated by measuring the inhibition of net cell growth. […]
(§2) 1.6. Cell lines and cell culture
(§3) MTT was purchased from Sigma-Aldrich Co. (St. Louis, MO, USA). The PI and Annexin V-FITC apoptosis detection kit were purchased from Invitrogen (Eugene, OR, USA). All human cell lines were used in this study. […]
(§4) cell, MCF-7 breast cancer cell, MCF-10A normal breast cell, Raji B lymphoblastoid cell and diffuse large B-cell lymphoma SU-DHL-10 cell were initially purchased from American Type Culture Collection (ATCC, Manassas, Virginia). media, DMEM, and FBS were provided from Gibco Company.
(§5) 1.7. Cell growth inhibition assay (MTT assay)
(§6) The experiment was carried out according to the method of reference. Briefly, cells were plated in 96-well plates at a den- […]
(§7) the anti-proliferative activities were determined by MTT assay. […]
(§8) (Becton-Dickinson, Franklin Lakes, NJ). […]

[2] = tested on: AGS gastric cancer cell; assay: MTT anti-proliferative assay, AGS; settings: for IC50: MTT, 48 h
Method: as §1, §2, §3, §4, §5, §6, §7, §8

[3] = tested on: BEL-7402 liver cancer cell; assay: MTT anti-proliferative assay, BEL-7402; settings: MTT, 48 h
Method: as §1, §2, §3, §4, §5, §6, §7, §8

[4] = tested on: HCT116 colectal cancer cell; assay: MTT anti-proliferative assay, HCT116; settings: for IC50: MTT, 48 h, read-out: IC50 HCT-116
Method: as §1, §2, §3, §4, §5, §6, §7, §8

[5] = tested on: HeLa cervical cancer cell; assay: MTT anti-proliferative assay, HeLa; settings: MTT, 48 h
Method: as §1, §2, §3, §4, §5, §6, §7, §8

[6] = tested on: HepG2 hepatoma cell; assay: MTT anti-proliferative assay, HepG2; settings: MTT, 48 h; read-out: IC50 HepG-2
Method: as §1, §2, §3, §4, §5, §6, §7, §8

[7] = tested on: L-02 normal liver cell; assay: MTT assay, L-02 normal cells; settings: 48 h
Method: as §1, §2, §3, §4, §5, §6, §7, §8

[8] = tested on: MGC-803 late stage differentiation gastric cancer cell; assay: MTT anti-proliferative assay, MGC-803; settings: for IC50: MTT, 48 h
Method: as §1, §2, §3, §4, §5, §6, §7, §8

[9] = tested on: MCF-7 breast cancer cell; assay: MTT anti-proliferative assay, MCF-7; settings: for IC50: MTT, 48 h
Method: as §1, §2, §3, §4, §5, §6, §7, §8

[10] = tested on: MCF-10A normal breast cell; assay: MTT assay, MCF-10A normal cells; settings: 48 h
Method: as §1, §2, §3, §4, §5, §6, §7, §8

[11] = tested on: Raji B lymphoblastoid cell; assay: MTT anti-proliferative assay, Raji; settings: for IC50: MTT, 48 h, read-out: IC50 Raji
Method: as §1, §2, §3, §4, §5, §6, §7, §8

[12] = tested on: SGC-7901 early differentiation gastric cancer cell; assay: MTT anti-proliferative assay, SGC-7901; settings: for IC50: MTT, 48 h
Method: as §1, §2, §3, §4, §5, §6, §7, §8

[13] = tested on: diffuse large B-cell lymphoma SU-DHL-10 cell; assay: MTT anti-proliferative assay, SU-DHL-10; settings: for IC50: MTT, 48 h, read-out: IC50 SU-DHL-10
Method: as §1, §2, §3, §4, §5, §6, §7, §8

SMILES | IC50 [1] [µM] | IC50 [2] [µM] | IC50 [3] [µM] | IC50 [4] [µM] | IC50 [5] [µM] | IC50 [6] [µM] | IC50 [7] [µM] | IC50 [8] [µM] | IC50 [9] [µM] | IC50 [10] [µM] | IC50 [11] [µM] | IC50 [12] [µM] | IC50 [13] [µM] | other results
COc1ccc(/C=C(\C#N)c2ccc(C(F)(F)F)cc2)cc1 [Compound 1f2s] | > 100 | > 100 | > 100 | 47.8 ± 0.7 | > 100 | > 100 | > 100 | > 100 | > 100 | > 100 | > 100 | > 100 | > 100 | SI (selectivity index), IC50 (L-02)/IC50 (HCT-116) [4]: > 2.0
CCN(CC)c1ccc(/C=C(\C#N)c2ccc(OC)cc2)cc1 [Compound 1e2c] | > 100 | > 100 | > 100 | > 100 | > 100 | > 100 | > 100 | > 100 | > 100 | > 100 | 19.3 ± 0.5 | > 100 | 62.3 ± 9.6 | SI (selectivity index), IC50 (L-02)/IC50 (Raji) [11]: > 5.1; SI (selectivity index), IC50 (L-02)/IC50 (SU-DHL-10) [13]: > 1.6
COc1cc(/C=C(\C#N)c2ccc(OC(F)(F)F)cc2)cc(OC)c1OC [Compound 1a2l] | > 100 | > 100 | > 100 | > 100 | > 100 | > 100 | > 100 | > 100 | > 100 | > 100 | > 100 | > 100 | > 100 | –
N#C/C(=C\c1c(F)cccc1Cl)c1ccc(C(F)(F)F)cc1 [Compound 1f2j] | > 100 | > 100 | > 100 | > 100 | > 100 | > 100 | > 100 | > 100 | > 100 | > 100 | > 100 | > 100 | > 100 | –
N#C/C(=C\c1cccc2ccccc12)c1ccc(C(F)(F)F)cc1 [Compound 1f3d] | > 100 | > 100 | > 100 | > 100 | > 100 | > 100 | > 100 | > 100 | > 100 | > 100 | > 100 | > 100 | > 100 | –
Cc1cccc(/C=C(\C#N)c2ccc(OC(F)(F)F)cc2)c1 [Compound 1a2q] | > 100 | > 100 | > 100 | > 100 | > 100 | > 100 | > 100 | > 100 | > 100 | > 100 | > 100 | > 100 | > 100 | –
Cc1ccc(/C=C(\C#N)c2ccc(C(F)(F)F)cc2)cc1 [Compound 1f2n] | 37.9 ± 1 | 46.4 ± 15 | > 100 | 57.3 ± 3.2 | > 100 | > 100 | > 100 | > 100 | > 100 | > 100 | > 100 | > 100 | > 100 | SI (selectivity index), IC50 (L-02)/IC50 (AGS) [2]: > 2.4
N#C/C(=C\c1ccccn1)c1ccc(C(F)(F)F)cc1 [Compound 1f3c] | > 100 | > 100 | > 100 | 87.6 ± 9.1 | > 100 | > 100 | > 100 | > 100 | > 100 | > 100 | > 100 | > 100 | > 100 | SI (selectivity index), IC50 (L-02)/IC50 (HCT-116) [4]: > 1.1
N#C/C(=C\c1cccs1)c1ccc(C(F)(F)F)cc1 [Compound 1f3b] | > 100 | 65 ± 17.9 | > 100 | > 100 | > 100 | > 100 | > 100 | > 100 | > 100 | > 100 | > 100 | > 100 | > 100 | SI (selectivity index), IC50 (L-02)/IC50 (AGS) [2]: > 1.5
N#C/C(=C\c1ccc(N2CCCCC2)cc1)c1ccc(OC(F)(F)F)cc1 [Compound 1a2u] | > 100 | > 100 | > 100 | > 100 | > 100 | > 100 | > 100 | > 100 | > 100 | > 100 | > 100 | > 100 | > 100 | –
N#C/C(=C\c1ccccc1)c1ccc(C(F)(F)F)cc1 [Compound 1f2c] | > 100 | > 100 | > 100 | > 100 | > 100 | > 100 | > 100 | > 100 | > 100 | > 100 | > 100 | > 100 | > 100 | –
CCc1ccc(/C=C(\C#N)c2ccc(OC(F)(F)F)cc2)cc1 [Compound 1a2f] | > 100 | 14.6 ± 5.9 | > 100 | 43.5 ± 3.8 | > 100 | > 100 | > 100 | 56.7 ± 11 | 59.9 ± 2.3 | > 100 | 42.7 ± 3.4 | 77.9 ± 12.6 | 15.1 ± 11.6 | SI (selectivity index), IC50 (L-02)/IC50 (AGS) [2]: > 6.8; SI (selectivity index), IC50 (L-02)/IC50 (HCT-116) [4]: > 2.2; SI (selectivity index), IC50 (L-02)/IC50 (MGC-803) [8]: > 1.7; SI (selectivity index), IC50 (MCF-10A)/IC50 (MCF-7) [9]: > 1.6; SI (selectivity index), IC50 (L-02)/IC50 (Raji) [11]: > 2.3; SI (selectivity index), IC50 (L-02)/IC50 (SGC-7901) [12]: > 1.2; SI (selectivity index), IC50 (L-02)/IC50 (SU-DHL-10) [13]: > 6.6
CCCCOc1ccc(/C=C(\C#N)c2ccc(OC(F)(F)F)cc2)cc1 [Compound 1a2n] | > 100 | > 100 | > 100 | > 100 | > 100 | > 100 | > 100 | > 100 | > 100 | > 100 | > 100 | > 100 | > 100 | –
CC(C)c1ccc(/C=C(\C#N)c2ccc(C(F)(F)F)cc2)cc1 [Compound 1f2q] | > 100 | > 100 | > 100 | > 100 | > 100 | > 100 | > 100 | > 100 | > 100 | > 100 | 34.9 ± 4.5 | > 100 | 38.4 ± 3.6 | SI (selectivity index), IC50 (L-02)/IC50 (Raji) [11]: > 2.8
N#C/C(=C\c1ccc(N2CCCC2)cc1)c1ccc(OC(F)(F)F)cc1 [Compound 1a2t] | > 100 | 89.8 ± 1 | > 100 | 30.8 ± 2.9 | > 100 | > 100 | > 100 | 41.5 ± 2.1 | > 100 | > 100 | > 100 | 57.2 ± 14.3 | > 100 | SI (selectivity index), IC50 (L-02)/IC50 (AGS) [2]: > 1.1; SI (selectivity index), IC50 (L-02)/IC50 (HCT-116) [4]: > 3.2; SI (selectivity index), IC50 (L-02)/IC50 (MGC-803) [8]: > 2.4; SI (selectivity index), IC50 (L-02)/IC50 (SGC-7901) [12]: > 1.7
CC(C)c1ccc(/C=C(\C#N)c2ccc(OC(F)(F)F)cc2)cc1 [Compound 1a2g] | 71.6 ± 24.7 | 8.7 ± 2.1 | > 100 | 57.4 ± 7.8 | > 100 | > 100 | > 100 | > 100 | > 100 | > 100 | 66.6 ± 13.3 | 89.9 ± 5.6 | 27.3 ± 5.3 | SI (selectivity index), IC50 (L-02)/IC50 (A549) [1]: > 1.3; SI (selectivity index), IC50 (L-02)/IC50 (AGS) [2]: > 11.4; SI (selectivity index), IC50 (L-02)/IC50 (HCT-116) [4]: > 1.7; SI (selectivity index), IC50 (L-02)/IC50 (Raji) [11]: > 1.5; SI (selectivity index), IC50 (L-02)/IC50 (SGC-7901) [12]: > 1.1; SI (selectivity index), IC50 (L-02)/IC50 (SU-DHL-10) [13]: > 3.6
COc1ccc(/C(C#N)=C/c2ccc(N(C)C)cc2)cc1 [Compound 1e2b] | > 100 | > 100 | > 100 | > 100 | > 100 | > 100 | > 100 | 15.1 ± 1.2 | > 100 | > 100 | 12.7 ± 3.8 | 22.6 | > 100 | SI (selectivity index), IC50 (L-02)/IC50 (MGC-803) [8]: > 6.6; SI (selectivity index), IC50 (L-02)/IC50 (Raji) [11]: > 7.8; SI (selectivity index), IC50 (L-02)/IC50 (SGC-7901) [12]: > 4.4
CCCOc1ccc(/C=C(\C#N)c2cccc(OC(F)(F)F)c2)cc1 [Compound 1b2k] | > 100 | > 100 | > 100 | > 100 | > 100 | > 100 | > 100 | > 100 | > 100 | > 100 | > 100 | > 100 | > 100 | –
